Experimental data published in US8895474B2, “Herbicidally active cyclopentanediones and derivatives thereof, and their use in controlling weeds” (Syngenta Limited, priority 2009, dated 2014).

Columns and labels:
Format in all cases: in vivo
Settings in all cases: 312 h, rate 250 g/ha, evaluated after 13 days, 100=total damage to plant, 0=no damage to plant
Lolium perenne (LOLPE) [1] = test: Pre-emergence herbicidal activity, glasshouse pot test
Procedure: (§1) Seeds of a variety of test species were sown in standard soil in pots. After cultivation for one day (pre-emergence) or after 8 days cultivation (post-emergence) under controlled conditions in a glasshouse (at 24/16° C., day/night; 14 hours light; 65% humidity), the plants were sprayed with an aqueous spray solution derived from the formulation of the technical active ingredient in acetone/water (50:50) solution containing 0.5% Tween 20 (polyoxyethelyene sorbitan monolaurate, CAS RN 9005-64-5). The test plants were then grown in a glasshouse under controlled conditions in a glasshouse (at 24/16° C., day/night; 14 hours light; 65% humidity) and watered twice daily. After 13 days for pre and post-emergence, the test was evaluated (100=total damage to plant; 0=no damage to plant). Test Plants: Lolium perenne (LOLPE), Alopecurus myosuroides (ALOMY), Echinochloa crus-galli (ECHCG), and Avena fatua (AVEFA). Pre-Emergence Activity

[2] = test system: Alopecurus myosuroides (ALOMY); test: as above
Procedure: as §1

Avena fatua (AVEFA) [3] = test: as above
Procedure: as §1

[4] = test system: Echinochloa crus-galli (ECHCG); test: as above
Procedure: as §1

Lolium perenne (LOLPE) [5] = test: Post-emergence herbicidal activity, glasshouse pot test
Procedure: as §1, with “Post-Emergence” for “Pre-Emergence”

[6] = test system: Alopecurus myosuroides (ALOMY); test: as above
Procedure: as §1, with “Post-Emergence” for “Pre-Emergence”

Avena fatua (AVEFA) [7] = test: as above
Procedure: as §1, with “Post-Emergence” for “Pre-Emergence”

[8] = test system: Echinochloa crus-galli (ECHCG); test: as above
Procedure: as §1, with “Post-Emergence” for “Pre-Emergence”

Row | SMILES | pest or weed control at 250 g/ha (Lolium perenne (LOLPE) [1]) [%] | pest or weed control at 250 g/ha [2] [%] | pest or weed control at 250 g/ha (Avena fatua (AVEFA) [3]) [%] | pest or weed control at 250 g/ha [4] [%] | pest or weed control at 250 g/ha (Lolium perenne (LOLPE) [5]) [%] | pest or weed control at 250 g/ha [6] [%] | pest or weed control at 250 g/ha (Avena fatua (AVEFA) [7]) [%] | pest or weed control at 250 g/ha [8] [%]
1 | CCc1ccc(Oc2ccc3cc(Cl)ccc3n2)cc1C1=C(O)CCC1=O [Compound A-43] | 50 | 40 | 10 | 60 | 30 | 60 | 30 | 100
2 | CCc1ccc(Oc2ccc(Cl)cc2Cl)cc1C1=C(O)[C@H]2[C@@H](C1=O)[C@@H]1CC[C@H]2O1 [Compound A-44] | 90 | 80 | 80 | 80 | 90 | 80 | 80 | 80
3 | CCc1ccc(Oc2ccc(Cl)c(F)c2)cc1C1=C(O)[C@H]2[C@@H](C1=O)[C@@H]1CC[C@H]2O1 [Compound A-45] | 90 | 90 | 90 | 100 | 90 | 90 | 90 | 100
4 | CCc1ccc(Oc2ccc(F)cc2)cc1C1=C(O)[C@H]2[C@@H](C1=O)[C@@H]1CC[C@H]2O1 [Compound A-46] | 80 | 80 | 60 | 100 | 80 | 80 | 60 | 100
5 | CCc1ccc(Oc2cccc(Br)c2)cc1C1=C(O)[C@H]2[C@@H](C1=O)[C@@H]1CC[C@H]2O1 [Compound A-47] | 70 | 60 | 30 | 90 | 70 | 60 | 30 | 90
6 | CCc1ccc(Oc2ccc(Br)c(Cl)c2)cc1C1=C(O)[C@H]2[C@@H](C1=O)[C@@H]1CC[C@H]2O1 [Compound A-48] | 80 | 80 | 80 | 90 | 80 | 80 | 80 | 90
7 | CCc1ccc(Oc2ccc(F)c(Cl)c2)cc1C1=C(O)[C@H]2[C@@H](C1=O)[C@@H]1CC[C@H]2O1 [Compound A-49] | 100 | 90 | 90 | 100 | 100 | 90 | 90 | 100
8 | CCc1ccc(Oc2ccc(OC(F)(F)F)cc2)cc1C1=C(O)[C@H]2[C@@H](C1=O)[C@@H]1CC[C@H]2O1 [Compound A-50] | 100 | 100 | 100 | 100 | 100 | 100 | 100 | 100
9 | CCc1ccc(Oc2cnc3cc(Cl)ccc3n2)cc1C1=C(O)[C@H]2[C@@H](C1=O)[C@@H]1CC[C@H]2O1 [Compound A-51] | 100 | 100 | 90 | 90 | 100 | 100 | 90 | 90
10 | O=C1CCC(O)=C1c1cc(Oc2ccc(Cl)cc2)ccc1OC(F)(F)F [Compound A-52, 2-[5-(4-chlorophenoxy)-2-trifluoromethoxyphenyl]cyclopentane-1,3-dione] | 0 | 0 | 0 | 0 | 0 | 0 | 0 | 50
11 | CCc1ccc(Oc2ccc3cc(Cl)ccc3n2)cc1C1=C(O)C2C3CCC(CC3)C2C1=O (stereo not shown) [Compound A-53] | 80 | 80 | 0 | 100 | 90 | 80 | 80 | 90
12 | O=C1CCC(O)=C1c1cc(Oc2ccc(Cl)cc2)ccc1C1CC1 [Compound A-54, 2-[5-(4-chlorophenoxy)-2-cyclopropylphenyl]cyclopentane-1,3-dione] | 0 | 0 | 0 | 0 | 0 | 0 | 10 | 80
13 | CCc1ccc(Oc2ccc(C#N)c(Cl)c2)cc1C1=C(O)CCC1=O [Compound A-56] | 50 | 30 | 20 | 60 | 20 | 20 | 0 | 70
14 | CCc1ccc(Oc2ccc(C(F)(F)F)cn2)cc1C1=C(O)CCC1=O [Compound A-60] | 80 | 80 | 70 | 100 | 80 | 90 | 80 | 100
15 | CCc1ccc(Oc2cnc3ccccc3n2)cc1C1=C(O)CCC1=O [Compound A-67] | 100 | 60 | 40 | 100 | 80 | 70 | 20 | 100
16 | CCc1ccc(Oc2ccc(C(F)(F)F)c(C#N)c2)cc1C1=C(O)CCC1=O [Compound A-70] | 20 | 0 | 10 | 60 | 10 | 0 | 0 | 60
17 | CCc1ccc(Oc2ncc(C(F)(F)F)cc2C(F)(F)F)cc1C1=C(O)CCC1=O [Compound A-71] | 100 | 90 | 80 | 100 | 100 | 100 | 100 | 100
